Literature values in patent publication US20240197726A1, “NOVEL TETRAHYDROISOQUINOLINE ALKALOID COMPOUND CONTAINING MACROCYCLE” (THE UNIVERSITY OF TOKYO, priority 2021, published 2024).
Like-named read-outs stand apart in the source and are kept apart here.

Columns and labels:
Settings in all cases: cited from earlier work
[1] = test system: HCT-116 colorectal cancer cells
[2] = test system: MCF-7 breast cancer cells
[3] = test system: MDA-MB-231 breast cancer cells
A549 lung cancer cells = test system: A549 lung cancer cells
[4] = test system: HT-29 colorectal cancer cells
[5] = test system: NCI-H460 lung cancer cells
[6] = test system: NCI-H23 lung cancer cells

Structure (SMILES) | GI50 ([1]; HCT-116 colorectal cancer cells, comparative value based on the literature, read-out: antitumor activity GI50 value: 50% growth inhibitory concentration) | GI50 ([2]; MCF-7 breast cancer cells, comparative value based on the literature, read-out: antitumor activity GI50 value: 50% growth inhibitory concentration) | GI50 ([3]; MDA-MB-231 breast cancer cells, comparative value based on the literature, read-out: antitumor activity GI50 value: 50% growth inhibitory concentration) | GI50 (A549 lung cancer cells; A549 lung cancer cells, comparative value based on the literature, read-out: antitumor activity GI50 value: 50% growth inhibitory concentration) | GI50 ([4]; HT-29 colorectal cancer cells, comparative value based on the literature, read-out: antitumor activity GI50 value: 50% growth inhibitory concentration) | GI50 ([5]; NCl--H460 lung cancer cells, comparative value based on the literature, read-out: antitumor activity GI50 value: 50% growth inhibitory concentration) | GI50 ([6]; NCl-H23 lung cancer cells, comparative value based on the literature, read-out: antitumor activity GI50 value: 50% growth inhibitory concentration) | GI50 ([1]; HCT-116, reference values from literature (Leal et al. Br. J Pharmacol, 2010), read-out: GI50 value: 50% growth inhibitory concentration) | GI50 ([2]; MCF-7, reference values from literature (Leal et al. Br. J Pharmacol, 2010), read-out: GI50 value: 50% growth inhibitory concentration) | GI50 ([3]; MDA-MB-231, reference values from literature (Leal et al. Br. J Pharmacol, 2010), read-out: GI50 value: 50% growth inhibitory concentration) | GI50 (A549 lung cancer cells; A549, reference values from literature (Leal et al. Br. J Pharmacol, 2010), read-out: GI50 value: 50% growth inhibitory concentration) | GI50 ([4]; HT-29, reference values from literature (Leal et al. Br. J Pharmacol, 2010), read-out: GI50 value: 50% growth inhibitory concentration) | GI50 ([5]; NCI-H460, reference values from literature (Leal et al. Br. J Pharmacol, 2010), read-out: GI50 value: 50% growth inhibitory concentration) | GI50 ([6]; NCI-H23, reference values from literature (Leal et al. Br. J Pharmacol, 2010), read-out: GI50 value: 50% growth inhibitory concentration)
COc1c(C)cc2c(c1C)[C@H]1N(C)[C@@](C)(C2)C(C)N2C1(C)[C@@H]1CCC3(CCCC4=C3Cc3ccc(C)cc34)C(=O)OC[C@@]2(C)c2c3c(c(C)c(C)c21)OCO3 (some centres unmarked) [drawing 163] | 6.4 nM | 1.7 nM | 3.4 nM | 1.3 nM | 2.4 nM | 1.5 nM | 5.3 nM |  |  |  |  |  |  | 
COc1ccc2[nH]c3c(c2c1)CCN[C@]31CS[C@@H]2c3c(OC(C)=O)c(C)c4c(c3[C@H](COC1=O)N1[C@@H]2[C@H]2c3c(cc(C)c(OC)c3O)C[C@@H]([C@@H]1O)N2C)OCO4 [lurbinectedin, reference compound] |  |  |  |  |  |  |  | 6.4 nM | 1.7 nM | 3.4 nM | 1.3 nM | 2.4 nM | 1.5 nM | 5.3 nM
